Test results taken from PubChem BioAssay (NCI).
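Cultured in 96-well plates, cells were exposed to test compound for 48 hours across five concentrations. Here, GI50 denotes the concentration required for 50% inhibition of growth. The concentration for full growth arrest is given as TGI.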

How the values were obtained:
Assay in all cases: inhibition of tumour cell growth, NCI panel, 48 h
NCI-H460 lung = test system: NCI-H460 lung
UO-31 renal = test system: UO-31 renal
OVCAR-8 ovarian = test system: OVCAR-8 ovarian
K-562 leukemia = test system: K-562 leukemia
HOP-62 NSCLC = test system: HOP-62 NSCLC
EKVX NSCLC = test system: EKVX NSCLC
SN12C renal = test system: SN12C renal
UACC-257 melanoma = test system: UACC-257 melanoma
HCT-15 colon = test system: HCT-15 colon
A498 renal = test system: A498 renal

Row | SMILES | TGI (NCI-H460 lung) [µM] | TGI (UO-31 renal) [µM] | TGI (OVCAR-8 ovarian) [µM] | TGI (K-562 leukemia) [µM] | TGI (HOP-62 NSCLC) [µM] | TGI (EKVX NSCLC) [µM] | TGI (SN12C renal) [µM] | TGI (UACC-257 melanoma) [µM] | TGI (HCT-15 colon) [µM] | TGI (A498 renal) [µM] | GI50 (NCI-H460 lung) [µM]
1 | O=C(Nc1ccc(Cl)cc1)c1cc2cc(N=Nc3ccccc3Cl)ccc2oc1=O | > 100 | 39.3 | 59 | 23.6 | 61.9 | 57.5 | 44.7 | 68.2 | 24.1 | – | –
2 | COc1cc2c(c(O)c1OC)-c1c(cc(OC)c(OC)c1OC)CC(C)C(C)C2 (stereo unspecified) | > 100 | > 100 | > 100 | > 100 | > 100 | > 100 | > 100 | > 100 | > 100 | > 100 | –
3 | Nc1ncnc2c1ncn2C=C=CCO | > 100 | > 100 | > 100 | > 100 | > 100 | – | > 100 | > 100 | > 100 | > 100 | –
4 | Cc1ccc(S(=O)(=O)n2cc(-c3cc(C(F)(F)F)ccn3)c3cc(Br)ccc32)cc1 | > 100 | 24.7 | – | > 100 | 29.5 | > 100 | 88 | > 100 | > 100 | 46.9 | –
5 | C=C1c2ccccc2C(=O)c2c1c1c(C(=O)OC)c(O)ccc1n2Cc1ccccc1 | 2.34 | 1.74 | 0.952 | 1.55 | 1.53 | 2.34 | 0.939 | 5.98 | 1.2 | 2.27 | –
6 | CC(C)=CCC/C(C)=C/CC/C(C)=C/CC/C(C)=C/C=C/C=C(\C)CC/C=C(\C)CC/C=C(\C)CCC=C(C)C | > 58.4 | 54.8 | > 88.2 | > 31.6 | > 100 | > 93.3 | > 55.3 | > 100 | > 100 | > 100 | –
7 | O=C([O-])C[n+]1ccccc1 | > 100 | > 100 | > 100 | > 100 | > 100 | > 100 | > 100 | > 100 | > 100 | > 100 | –
8 | C=CCN1C(=O)C=C(c2ccccc2)n2ncc3cccc1c32 | – | > 100 | > 100 | – | > 100 | > 100 | > 100 | > 100 | > 100 | > 100 | –
9 | O=S1(=O)N=C(SCc2ccccc2)N(c2ccccc2)c2ccncc21 | > 100 | 46.8 | > 100 | > 100 | > 100 | > 100 | > 100 | > 100 | > 100 | 59.9 | –
10 | CCOc1ccc(NC(=O)C(=O)CC(=O)c2sc(NNC(C)=O)nc2C)cc1 | > 100 | > 100 | > 100 | > 100 | > 100 | > 100 | > 100 | > 100 | > 100 | > 100 | –
11 | NN(CC(=O)O)CC(=O)O | > 100 | > 100 | > 100 | > 100 | > 100 | > 100 | > 100 | > 100 | > 100 | > 100 | –
12 | CCOc1cc(NC(C)=O)ccc1C(=O)NN1C(=O)C(Cl)C1c1ccccc1 (stereo unspecified) | 33.6 | 14.9 | > 100 | 23.9 | 44.4 | 28.7 | 36.5 | 28 | 45.4 | 31.7 | –
13 | Nc1ncnc2nc[nH]c12 | > 250 | > 250 | > 250 | > 250 | > 250 | > 250 | > 237 | > 250 | > 250 | 11.1 | 21.3
